Measurements: PubChem BioAssay (NCI)
“And” between values parts separate entries of the source, which are not always exact repeats. Equal values may be shown once.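 GI50 = concentration required for 50% inhibition of growth. TGI is the concentration that stops growth completely.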

How the values were obtained:
Test in all cases: DTP human tumour cell line panel, 384-well format
[1] = system: SK-MEL-5 melanoma
[2] = system: HT29 colon
[3] = system: ACHN renal
[4] = system: COLO 205 colon
[5] = system: KM12 colon
[6] = system: NCI/ADR-RES ovarian
[7] = system: HL-60(TB) leukemia
[8] = system: HOP-92 NSCLC
[9] = system: NCI-H460 NSCLC
[10] = system: BT-549 breast
[11] = system: A549 NSCLC
[12] = system: UO-31 renal
[13] = system: K-562 leukemia
[14] = system: SK-MEL-28 melanoma
[15] = system: MOLT-4 leukemia
[16] = system: SF-295 CNS
[17] = system: A498 renal
[18] = system: MALME-3M melanoma
[19] = system: SN12C renal
[20] = system: SW-620 colon
[21] = system: SF-268 CNS
[22] = system: OVCAR-4 ovarian
[23] = system: EKVX NSCLC
[24] = system: NCI-H226 lung
[25] = system: 786-0 renal
[26] = system: RPMI-8226 leukemia
[27] = system: SF-539 CNS
[28] = system: HCT-116 colon
[29] = system: SK-OV-3 ovarian
[30] = system: IGROV1 ovarian
[31] = system: SNB-19 CNS
[32] = system: UACC-62 melanoma
[33] = system: U251 glioblastoma
[34] = system: DU-145 prostate
[35] = system: OVCAR-5 ovarian
[36] = system: NCI-H522 lung
[37] = system: LOX IMVI melanoma
[38] = system: SR leukemia
[39] = system: CAKI-1 renal
[40] = system: MDA-MB-435 melanoma
[41] = system: HCC-2998 colon
[42] = system: M14 melanoma
[43] = system: SK-MEL-2 melanoma
[44] = system: NCI-H322M lung
[45] = system: OVCAR-8 ovarian
[46] = system: CCRF-CEM leukemia
[47] = system: HOP-62 NSCLC
[48] = system: HS 578T breast
[49] = system: MDA-MB-468 breast
[50] = system: RXF 393 renal
[51] = system: TK-10 renal
[52] = system: PC-3 prostate
[53] = system: HCT-15 colon
[54] = system: NCI-H23 lung
[55] = system: SNB-75 CNS
[56] = system: MCF7 breast
[57] = system: UACC-257 melanoma
[58] = system: MDA-MB-231 breast
[59] = system: T-47D breast
[60] = system: OVCAR-3 ovarian

Structure (SMILES): O=C(/C=C\n1cnc(-c2cc(C(F)(F)F)cc(C(F)(F)F)c2)n1)NNc1cnccn1
- GI50 [1]: 143 nM
- TGI [1]: 675 nM
- GI50 [2]: 213 nM
- TGI [2]: 6540 nM
- GI50 [3]: 250 nM
- TGI [3]: 5390 nM
- GI50 [4]: 84.2 nM
- TGI [4]: 4600 nM
- GI50 [5]: 442 nM
- TGI [5]: 3860 nM
- GI50 [6]: 89.1 nM
- TGI [6]: 1570 nM
- GI50 [7]: 41 nM
- TGI [7]: 185 nM
- GI50 [8]: 194 nM
- TGI [8]: 4360 nM
- GI50 [9]: 48.3 nM
- TGI [9]: 337 nM
- GI50 [10]: 19.9 nM
- TGI [10]: 62.1 nM
- GI50 [11]: 109 nM
- TGI [11]: 5620 nM
- GI50 [12]: 466 nM
- TGI [12]: 4410 nM
- GI50 [13]: 41.7 nM
- TGI [13]: 289 nM
- GI50 [14]: 192 nM
- TGI [14]: 1380 nM
- GI50 [15]: 16.3 nM
- TGI [15]: 31.1 nM
- GI50 [16]: 86 nM
- TGI [16]: 1050 nM
- GI50 [17]: 72.8 nM
- TGI [17]: 1540 nM
- GI50 [18]: 142 nM
- TGI [18]: 1170 nM
- GI50 [19]: 655 nM
- TGI [19]: 5870 nM
- GI50 [20]: 81.8 nM
- TGI [20]: 7100 nM
- GI50 [21]: 40.7 nM
- TGI [21]: 310 nM
- GI50 [22]: 316 nM
- TGI [22]: 1040 nM
- GI50 [23]: 1340 nM
- TGI [23]: 13100 nM
- GI50 [24]: 33.8 nM
- TGI [24]: 858 nM
- GI50 [25]: 59.8 nM
- TGI [25]: 3310 nM
- GI50 [26]: 19.6 nM
- TGI [26]: 64.9 nM
- GI50 [27]: 26.2 nM
- TGI [27]: 86 nM
- GI50 [28]: 60.8 nM
- TGI [28]: 504 nM
- GI50 [29]: 919 nM
- TGI [29]: 13600 nM
- GI50 [30]: 424 nM
- TGI [30]: 7510 nM
- GI50 [31]: 451 nM
- TGI [31]: 8540 nM
- GI50 [32]: 106 nM
- TGI [32]: 418 nM
- GI50 [33]: 88.9 nM
- TGI [33]: 816 nM
- GI50 [34]: 274 nM
- TGI [34]: 1220 nM
- GI50 [35]: 342 nM
- TGI [35]: 9930 nM
- GI50 [36]: 61.1 nM
- TGI [36]: 304 nM
- GI50 [37]: 144 nM
- TGI [37]: 555 nM
- GI50 [38]: 13.7 nM
- TGI [38]: 29.8 nM
- GI50 [39]: 99.7 nM
- TGI [39]: 13100 nM
- GI50 [40]: 177 nM
- TGI [40]: 721 nM
- GI50 [41]: 46.3 nM
- TGI [41]: 530 nM
- GI50 [42]: 353 nM
- TGI [42]: 1670 nM
- GI50 [43]: 119 nM
- TGI [43]: 282 nM
- GI50 [44]: 213 nM
- TGI [44]: 5260 nM
- GI50 [45]: 70.6 nM
- TGI [45]: 936 nM
- GI50 [46]: 91 nM
- TGI [46]: 390 nM
- GI50 [47]: 166 nM
- TGI [47]: 1170 nM
- GI50 [48]: 41.1 nM
- TGI [48]: 281 nM
- GI50 [49]: 90.3 nM
- TGI [49]: 249 nM
- GI50 [50]: 21.6 nM
- TGI [50]: 82.7 nM
- GI50 [51]: 126 nM
- TGI [51]: 13200 nM
- GI50 [52]: 57.6 nM
- TGI [52]: 999 nM
- GI50 [53]: 152 nM
- TGI [53]: 1310 nM
- GI50 [54]: 54.8 nM
- TGI [54]: 889 nM
- GI50 [55]: 77 nM
- TGI [55]: 422 nM
- GI50 [56]: 58 nM
- TGI [56]: 2150 nM
- GI50 [57]: 977 nM
- TGI [57]: 8460 nM
- GI50 [58]: 51.7 nM
- TGI [58]: 244 nM
- GI50 [59]: 165 nM
- TGI [59]: 4110 nM
- GI50 [60]: 57.6 nM
- TGI [60]: 463 nM

Structure (SMILES): CON(C)C(=O)N1N=C(c2cc(F)ccc2F)SC1(CCCN)c1ccccc1 (configuration not stated)
- GI50 [1]: < 10 nM
- TGI [1]: < 10 nM
- GI50 [2]: < 10 nM
- TGI [2]: 1150 nM and 1310 nM
- GI50 [3]: 11200 nM and 1630 nM
- TGI [3]: 23300 nM and 19600 nM
- GI50 [4]: < 10 nM
- TGI [4]: < 10 nM
- GI50 [5]: < 10 nM
- TGI [5]: 12100 nM and 11900 nM
- GI50 [6]: 116 nM and 17.5 nM
- TGI [6]: 270 nM and 137 nM
- GI50 [7]: < 10 nM
- TGI [7]: < 10 nM
- GI50 [8]: 10100 nM and 8950 nM
- TGI [8]: 21800 nM and 21600 nM
- GI50 [9]: < 10 nM
- TGI [9]: < 10 nM
- GI50 [10]: < 10 nM
- TGI [10]: 11900 nM and 11100 nM
- GI50 [11]: < 10 nM
- TGI [11]: 18600 nM and 18700 nM
- GI50 [14]: 2380 nM and 11600 nM
- TGI [14]: 19600 nM and 24000 nM
- GI50 [15]: < 10 nM
- TGI [15]: < 10 nM
- GI50 [16]: < 10 nM
- TGI [16]: 12800 nM and 13100 nM
- GI50 [17]: < 10 nM
- TGI [17]: 14500 nM and 13200 nM
- GI50 [18]: 1190 nM and 1260 nM
- TGI [18]: 3530 nM and 11800 nM
- GI50 [19]: < 10 nM
- TGI [19]: 14700 nM and 16600 nM
- GI50 [21]: < 10 nM
- TGI [21]: 15700 nM and 15300 nM
- GI50 [22]: < 10 nM
- TGI [22]: 14000 nM and 12600 nM
- GI50 [23]: < 10 nM
- TGI [23]: 15600 nM and 14800 nM
- GI50 [24]: 10200 nM and 2240 nM
- TGI [24]: 22000 nM and 16900 nM
- GI50 [26]: < 10 nM
- TGI [26]: < 10 nM
- GI50 [27]: < 10 nM
- TGI [27]: 10200 nM
- GI50 [28]: < 10 nM
- TGI [28]: 11200 nM and 11400 nM
- GI50 [29]: < 10 nM
- TGI [29]: 12200 nM and 11900 nM
- GI50 [30]: 1840 nM and 1130 nM
- TGI [30]: 18800 nM and 14700 nM
- GI50 [31]: < 10 nM
- TGI [31]: 11700 nM and 7120 nM
- GI50 [32]: < 10 nM
- TGI [32]: 16400 nM and 16100 nM
- GI50 [33]: < 10 nM
- TGI [33]: 10900 nM and 11200 nM
- GI50 [34]: < 10 nM
- TGI [34]: < 10 nM
- GI50 [35]: 10.6 nM and < 10 nM
- TGI [35]: 84.2 nM and < 10 nM
- GI50 [36]: < 10 nM
- TGI [36]: < 10 nM
- GI50 [37]: < 10 nM
- TGI [37]: 10500 nM and 11100 nM
- GI50 [38]: < 10 nM
- TGI [38]: < 10 nM
- GI50 [39]: 2260 nM and 2080 nM
- TGI [39]: 19200 nM and 19300 nM
- GI50 [40]: < 10 nM
- TGI [40]: < 10 nM
- GI50 [41]: < 10 nM
- TGI [41]: < 10 nM
- GI50 [42]: < 10 nM
- TGI [42]: < 10 nM
- GI50 [44]: < 10 nM
- TGI [44]: 17200 nM and 14900 nM
- GI50 [45]: < 10 nM
- TGI [45]: 14500 nM and 13400 nM
- GI50 [47]: < 10 nM
- TGI [47]: 14500 nM and 13800 nM
- GI50 [48]: < 10 nM
- TGI [48]: < 10 nM
- GI50 [49]: < 10 nM
- TGI [49]: < 10 nM
- GI50 [50]: < 10 nM
- TGI [50]: 17900 nM and 17800 nM
- GI50 [51]: 11.7 nM
- TGI [51]: 17400 nM
- GI50 [52]: < 10 nM
- TGI [52]: 15300 nM and 12800 nM
- GI50 [53]: < 10 nM
- TGI [53]: 11700 nM
- GI50 [54]: < 10 nM
- TGI [54]: 12700 nM and 11500 nM
- GI50 [55]: < 10 nM
- TGI [55]: 16000 nM and 15900 nM
- GI50 [56]: < 10 nM
- TGI [56]: 11900 nM and 12100 nM
- GI50 [57]: < 10 nM
- TGI [57]: 2290 nM and 2470 nM
- GI50 [58]: < 10 nM
- TGI [58]: 13800 nM and 15400 nM
- GI50 [59]: 13.8 nM and < 10 nM
- TGI [59]: 18300 nM and 18100 nM
- GI50 [60]: < 10 nM
- TGI [60]: < 10 nM

Structure (SMILES): Nc1ncn(C2CC(O)C(CO)O2)c(=O)n1 (configuration not stated)
- GI50 [1]: 705 nM
- GI50 [3]: 7840 nM
- GI50 [4]: 65600 nM
- GI50 [7]: 629 nM
- GI50 [9]: 1980 nM
- GI50 [13]: 1280 nM
- GI50 [15]: 39.7 nM
- GI50 [26]: 225 nM
- GI50 [38]: 2920 nM
- GI50 [45]: > 32900 nM
- GI50 [46]: 706 nM
- GI50 [49]: < 18.3 nM
- TGI [49]: 53.2 nM
- GI50 [53]: > 31200 nM
